Measurements from patent US20080317769A1, “Vaccine Composition Comprising Alpha-Galactosylceramide as an Adjuvant For Intranasal Administration” (priority 2005, published 2008).
“Also recorded” adds a separate entry of the source.

What was measured:
[1] = test system: PR8 HA-specific antibody responses; set-up: species or system Balb/c mice; conditions: mouse, in vivo
[2] = test system: β-galactosidase-specific antibody response; assay: β-galactosidase-specific antibody response after intranasal Ad-LacZ with αGalCer; type: in vivo; conditions: Balb/c mice; 10^6 pfu Ad-LacZ + 0.125 μg αGalCer intranasal, twice at two-week intervals; vs vehicle alone or Ad-LacZ alone
Method: Balb/c mice were immunized with 10^6 pfu of replication-deficient live adenovirus harboring beta-galactosidase gene (Ad-LacZ) (Viromed, Korea) alone or together with 0.125 μg of αGalCer by the intranasal administration, two times at two-week intervals. One week after the final immunization, the nasal wash, the lung wash and serum were separated, by the same manner as described in Example 1, to measure β-galactosidase-specific antibody response. In addition, to measure CTL activity, spleen cells were stimulated by 2.5 μg/mL of β-galactosidase for 5 days and IFN-γ-producing CD8+ T cells were examined by intracellular cytokine staining according to the procedure as described in Example <4-2>.

[3] = target: T1, CD1d (Mus musculus, UniProt P11609); assay: Systemic IgG and in vivo CTL activity in wild type versus CD1d−/− C57BL/6 mice; conditions: CD1d−/− vs wild type C57BL/6 mice; OVA + αGalCer intranasal three times at one-week intervals
T1 construct: host or cells: antigen presenting cells of living C57BL/6 mice (in vivo)
T1 sequence (P11609 22-336): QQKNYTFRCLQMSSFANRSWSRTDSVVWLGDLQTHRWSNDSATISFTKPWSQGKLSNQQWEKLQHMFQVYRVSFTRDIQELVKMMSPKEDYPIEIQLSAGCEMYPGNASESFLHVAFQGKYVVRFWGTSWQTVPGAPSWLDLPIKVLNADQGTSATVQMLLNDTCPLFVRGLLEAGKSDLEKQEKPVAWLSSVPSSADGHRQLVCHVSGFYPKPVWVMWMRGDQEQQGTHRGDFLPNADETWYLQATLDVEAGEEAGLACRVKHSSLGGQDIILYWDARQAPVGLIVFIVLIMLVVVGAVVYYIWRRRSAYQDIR
T1 sequence (P01887 21-119 partner): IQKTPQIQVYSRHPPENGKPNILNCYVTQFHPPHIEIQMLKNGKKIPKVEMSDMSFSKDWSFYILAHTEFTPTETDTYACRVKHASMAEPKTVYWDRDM
Method: To investigate whether the immune responses induced by αGalCer were mediated by CD1d, NKT deficient (resulted from the lack of CD1d) CD1d−/− C57BL/6 mice (Charles River Lab., Orient Co. Ltd., Korea) were used for the experiment (Park et al., J. Exp. Med., 193: 893, 2001). On the first week of the final intranasal administration, systemic IgG level in serum and in vivo CTL activity were measured in both wild type and CD1d−/− C57BL/6 mice by the same manner as described in Example 1 and Example 3.

[4] = test system: IFN-γ and IL-4 production; assay: IFN-γ and IL-4 production of spleen and CLN cells cultured with inactive PR8; type: in vivo; conditions: Balb/c mice; inactivated PR8 + αGalCer intranasal; cells cultured with inactive PR8 for 5 days
Method: (§1) To examine the role of αGalCer as an adjuvant of a killed virus, influenza virus A/PR/8/34 (PR8), which was inactivated with formalin, was used as an antigen to examine the anti-virus immune response. Balb/c mice were immunized with indicated amounts (1 μg, 10 μg) of inactivated PR8 alone or together with αGalCer by the intranasal administration twice at two-week intervals. Two weeks after the final immunization, the mice were sacrificed and following experiments were performed.
The supernatants were obtained and the levels of IFN-γ and IL-4 therein were measured by the same manner as described in Example 2.

[5] = test system: inactivated influenza virus A/PR/8/34 (PR8); assay: Humoral immune response after intranasal formalin-inactivated PR8 virus with αGalCer; type: in vivo; conditions: Balb/c mice
Method: as §1
The nasal wash, the lung wash and serum were separated from the sacrificed mice and the antibody productions were observed therein by the same manner as described in Example 1.

[6] = test system: IFN-γ and IL-4 production; assay: IFN-γ and IL-4 levels in spleen and CLN, Balb/c mice; type: in vivo
Method: It was directly investigated whether α-GalCer nasal vaccine adjuvant skews immune response into Th1 or Th2 immune response. To measure the secretions of cytokines, cells were obtained from spleen and cervical lymph node (CLN) a week after the final immunization. The cells ([…]) were cultured with 500 μg/ml of OVA for 4 days. The secretions of IFN-γ and IL-4 in the culture supernatant were measured by using the mouse IFN-γ and IL-4 OptELA set ELISA kit (BD Pharmigen) according to the manufacturer's instruction.
As described in Example 2, different amounts of αGalCer (0.125, 0.5, 2.0 μg) and OVA were intranasally administered to Balb/c mice (Charles River Laboratories, Oriet Co., Ltd., Korea), followed by measurement of the levels of IFN-γ and IL-4 in spleen and CLN.

[7] = test system: OT1 cells (OVA specific CD8+ T cells); assay: CD25 surface expression of adoptively transferred CFSE-labeled OT1 cells in CLN (FACS); type: in vivo, mouse; conditions: 100 μg OVA + 2.0 μg αGalCer intranasal vs OVA alone; 48 hours later
Method: To investigate the effect of αGalCer on the activation of T cells, the surface expression of CD25 in CFSE-labeled OT1 cells (OVA specific CD8+ T cells), which were adoptively transferred into syngenic mice, was measured. OT1 cells were separated from OT1 mouse by using CD8α (Ly-2) magnetic bead (Mitenyl Biotech), which were labeled with 10 μM of CFSE at 37° C. for 15 minutes and then transferred intravenously into a syngenic mouse. One day after the adoptive transfer, the intranasal administration of 100 μg of OVA alone or together with 2.0 μg of αGalCer was performed thereto. 48 hours later, the expression of CD25 in CLN was investigated with FACS.

[8] = dose escalation study, 50-4800 μg/m^2; cited from earlier work
[9] = mouse treated with 2200 μg/Kg of αGalCer; cited from earlier work

Compound: CCCCCCCCCCCCCCCCCCCCCCCCCC(=O)N[C@@H](CO[C@H]1O[C@H](CO)[C@H](O)[C@H](O)[C@H]1O)[C@H](O)[C@H](O)CCCCCCCCCCCCCC [αGalCer, alpha-galactosylceramide]
- PR8 HA-specific IgG antibody in serum [1]: high level
- β-galactosidase-specific IgG antibody in serum [2]: higher levels
- β-galactosidase-specific S-IgA antibody in the nasal wash and the lung wash [2]: higher levels
- CTL lytic activity in draining lymph node and systemic lymphoid organs of CD1d−/− mice [3]: inhibited
- systemic IgG antibody response in CD1d−/− mice [3]: significantly inhibited
- levels of Th1 cytokine IFN-γ and Th2 cytokine IL-4 in spleen and CLN [4]: significantly increased
- antigen-specific systemic IgG in serum ([5]; inactivated PR8 (1 μg, 10 μg) + αGalCer intranasal twice at two-week intervals, vs inactivated PR8 alone): significantly higher; also recorded: increased
- mucosal S-IgA in the nasal wash and the lung wash ([5]; inactivated PR8 + αGalCer intranasal twice at two-week intervals): remarkably increased
- IL-4 level in spleen, comparison of αGalCer doses ([6]; 0.5 μg of αGalCer intranasally coadministered with OVA): highest level of IL-4
- production of IFN-γ and IL-4 in spleen and CLN ([6]; all groups coimmunized with αGalCer (0.125, 0.5, 2.0 μg) and OVA): significant increase
- level of mucosal IgA in the lung wash and production of IL-4 in CLN, relation to the amount of αGalCer ([6]; αGalCer dose series + OVA intranasal): inverse proportion
- level of OT1 cells expressing CD25 in CLN [7]: higher
- dose-limiting toxicity [8]: does not cause dose-limiting toxicity
- side effects [9]: no side effects
